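Assay format: 96-well plates, 48-hour exposure. TGI is the concentration that stops growth completely.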
Columns and labels:
Assay in all cases: growth of human tumour cells (NCI), 48 h
SF-539 CNS = system: SF-539 CNS
CAKI-1 renal = system: CAKI-1 renal
RXF-631 renal = system: RXF-631 renal
SNB-75 CNS = system: SNB-75 CNS
SK-OV-3 ovarian = system: SK-OV-3 ovarian
SK-MEL-5 melanoma = system: SK-MEL-5 melanoma
HS 578T breast = system: HS 578T breast
HL-60(TB) leukemia = system: HL-60(TB) leukemia
HCC-2998 colon = system: HCC-2998 colon
SK-MEL-28 melanoma = system: SK-MEL-28 melanoma
NCI-H23 lung = system: NCI-H23 lung
HOP-18 NSCLC = system: HOP-18 NSCLC
UACC-257 melanoma = system: UACC-257 melanoma
SR leukemia = system: SR leukemia
HOP-62 NSCLC = system: HOP-62 NSCLC
EKVX NSCLC = system: EKVX NSCLC
COLO 205 colon = system: COLO 205 colon
SNB-19 CNS = system: SNB-19 CNS
786-0 renal = system: 786-0 renal
SNB-78 CNS = system: SNB-78 CNS
RPMI-8226 leukemia = system: RPMI-8226 leukemia
SF-268 CNS = system: SF-268 CNS
MALME-3M melanoma = system: MALME-3M melanoma
OVCAR-4 ovarian = system: OVCAR-4 ovarian
KM20L2 colon = system: KM20L2 colon
RXF 393 renal = system: RXF 393 renal
LXFL 529 NSCLC = system: LXFL 529 NSCLC
NCI-H460 lung = system: NCI-H460 lung
NCI-H226 lung = system: NCI-H226 lung
HCT-15 colon = system: HCT-15 colon
SK-MEL-2 melanoma = system: SK-MEL-2 melanoma
SW-620 colon = system: SW-620 colon
T-47D breast = system: T-47D breast
XF 498 CNS = system: XF 498 CNS
DLD-1 colon = system: DLD-1 colon
HT29 colon = system: HT29 colon
TK-10 renal = system: TK-10 renal
CCRF-CEM leukemia = system: CCRF-CEM leukemia
SF-295 CNS = system: SF-295 CNS
DU-145 prostate = system: DU-145 prostate
U251 CNS = system: U251 CNS
DMS 273 small cell lung = system: DMS 273 small cell lung
ACHN renal = system: ACHN renal
UO-31 renal = system: UO-31 renal
HOP-92 NSCLC = system: HOP-92 NSCLC
MDA-MB-231 breast = system: MDA-MB-231 breast
K-562 leukemia = system: K-562 leukemia
OVCAR-5 ovarian = system: OVCAR-5 ovarian
NCI-H522 lung = system: NCI-H522 lung
OVCAR-3 ovarian = system: OVCAR-3 ovarian
A498 renal = system: A498 renal
MOLT-4 leukemia = system: MOLT-4 leukemia
OVCAR-8 ovarian = system: OVCAR-8 ovarian
HCT-116 colon = system: HCT-116 colon
M14 melanoma = system: M14 melanoma
UACC-62 melanoma = system: UACC-62 melanoma
DMS 114 small cell lung = system: DMS 114 small cell lung
M19-MEL melanoma = system: M19-MEL melanoma
KM12 colon = system: KM12 colon
LOX IMVI melanoma = system: LOX IMVI melanoma
A549 NSCLC = system: A549 NSCLC
IGROV1 ovarian = system: IGROV1 ovarian
SN12C renal = system: SN12C renal

O=C1c2ccccc2C(=O)c2sc(Nc3ccc(Cl)c(Cl)c3)nc21
TGI (SF-539 CNS): 8.18 µM | TGI (CAKI-1 renal): 8.83 µM | TGI (RXF-631 renal): 31.4 µM | TGI (SNB-75 CNS): 26.7 µM | TGI (SK-OV-3 ovarian): 32.1 µM | TGI (SK-MEL-5 melanoma): 5.83 µM | TGI (HS 578T breast): 53.2 µM | TGI (HL-60(TB) leukemia): 1.18 µM | TGI (HCC-2998 colon): 29.3 µM | TGI (SK-MEL-28 melanoma): 20.7 µM | TGI (NCI-H23 lung): 10.5 µM | TGI (HOP-18 NSCLC): 14.3 µM | TGI (UACC-257 melanoma): 8.63 µM | TGI (SR leukemia): 11.5 µM | TGI (HOP-62 NSCLC): 21.3 µM | TGI (EKVX NSCLC): 29.5 µM | TGI (COLO 205 colon): 15.4 µM | TGI (SNB-19 CNS): 32.9 µM | TGI (786-0 renal): 3.59 µM | TGI (SNB-78 CNS): 6.68 µM | TGI (RPMI-8226 leukemia): 5 µM | TGI (SF-268 CNS): 12.8 µM | TGI (MALME-3M melanoma): 9.47 µM | TGI (OVCAR-4 ovarian): 5.69 µM | TGI (KM20L2 colon): 41.7 µM | TGI (RXF 393 renal): 12.4 µM | TGI (LXFL 529 NSCLC): 3.53 µM | TGI (NCI-H460 lung): 34.2 µM | TGI (NCI-H226 lung): 16.2 µM | TGI (HCT-15 colon): 5.06 µM | TGI (SK-MEL-2 melanoma): 33.2 µM | TGI (SW-620 colon): 3.19 µM | TGI (T-47D breast): 22.7 µM | TGI (XF 498 CNS): 6.04 µM | TGI (DLD-1 colon): 4.66 µM | TGI (HT29 colon): 42.5 µM | TGI (TK-10 renal): 21.8 µM | TGI (CCRF-CEM leukemia): 5.15 µM | TGI (SF-295 CNS): 29.4 µM | TGI (DU-145 prostate): 33.2 µM | TGI (U251 CNS): 6.05 µM | TGI (DMS 273 small cell lung): 22.1 µM | TGI (ACHN renal): 3.17 µM | TGI (UO-31 renal): 4.97 µM | TGI (HOP-92 NSCLC): 28 µM | TGI (MDA-MB-231 breast): 6.82 µM | TGI (K-562 leukemia): 17.9 µM | TGI (OVCAR-5 ovarian): 7.58 µM | TGI (NCI-H522 lung): 4.66 µM | TGI (OVCAR-3 ovarian): 6.3 µM | TGI (A498 renal): 31.6 µM | TGI (MOLT-4 leukemia): 6.37 µM | TGI (OVCAR-8 ovarian): 8.02 µM | TGI (HCT-116 colon): 7.3 µM | TGI (M14 melanoma): 9.86 µM | TGI (UACC-62 melanoma): 7.94 µM | TGI (DMS 114 small cell lung): 3.26 µM | TGI (M19-MEL melanoma): 2.44 µM | TGI (KM12 colon): 18 µM | TGI (LOX IMVI melanoma): 4.73 µM | TGI (A549 NSCLC): 54.5 µM | TGI (IGROV1 ovarian): 10.1 µM | TGI (SN12C renal): 3.23 µM
